Test results as given in patent US8501842B2, “Polypropylene resin composition and molded article” (Sumitomo Chemical Company, Limited, priority 2007, dated 2013).

Test: Weight loss by thermogravimetric analysis (TG-DTA)
Assay type: physicochemical
Conditions: room temperature to 300° C. at 10° C./min, nitrogen gas atmosphere (100 ml/min)
Procedure: Regarding requirement (c), from the viewpoint of the staining of a mold, the emitted amount of VOC, and the stability against photodegradation, the weight loss measured in a thermogravimetric analysis at a temperature of 300° C. under a nitrogen gas atmosphere preferably is less than 5% by weight, and more preferably is less than 3% by weight. The weight loss measured by the thermogravimetric analysis of a hindered amine light stabilizer (C) is a value determined by using a thermo gravimetry differential thermal analyzer (TG-DTA). Described concretely, it is a weight loss rate determined using a thermobalance when the temperature of a hindered amine light stabilizer (C) is increased from room temperature to 300° C. at a rate of 10° C. per minute under a nitrogen gas atmosphere (in a nitrogen flow at a flow rate of 100 ml/min).
The weight loss by thermogravimetric analysis (TG-DTA) of a hindered amine light stabilizer was measured with a thermo gravimetry differential thermal analyzer from room temperature to 300° C. at a temperature increasing rate of 10° C./min under a nitrogen gas atmosphere (100 ml/min).
For `CN1C(C)(C)CC(OC(=O)CC(C(=O)OC2CC(C)(C)N(C)C(C)(C)C2)C(CC(=O)OC2CC(C)(C)N(C)C(C)(C)C2)C(=O)OC2CC(C)(C)N(C)C(C)(C)C2)CC1(C)C` (stereo not drawn) [Example C-2, Tetrakis(1,2,2,6,6-pentamethyl-4-piperidyl) 1,2,3,4-butanetetracarboxylate], the “Weight loss by thermogravimetric analysis (TG-DTA)” value (shortened to “Weight loss”) was 5.8 % by weight.
For `CC(C)(C)c1ccc(OC(=O)c2cc(C(C)(C)C)c(O)c(C(C)(C)C)c2)c(C(C)(C)C)c1` [Example C-3, 2,4-Di-tert-butylphenyl 3,5-di-tert-butyl-4-hydroxybenzoate], the “Weight loss” value was 31.6 % by weight.
In the case of “Condensate of N,N-bis(3-aminopropyl)ethylenediamine-2,4-bis[N-butyl-N-(1,2,2,6,6-pentamethyl-4-piperidyl)amino]-6-chloro-1,3,5-triazine [Example C-5]”, the “Weight loss” value is reported as 0.6 % by weight.
